Assay [1] deals with CHO. Put plainly: The sensitizing capacity for colchicine treatment of parental (PAR)CHO cells at concentration 1.0 (mg/L). The assay is classed as functional, Cricetulus griseus.
In assay [2] the test system is CHO. Put plainly: Sensitization of colchicine treated parental (PAR)CHO cells, measured at concentration 0.1(mg/L). The assay is classed as functional, Cricetulus griseus.
The test system of assay [3] is KB. Put plainly: The sensitizing capacity of compound for colchicine treatment of multi drug resistance in KB cell was measured at concentration 3.0 (mg/L). Type of assay: functional, Homo sapiens.
For assay [4], the system named is CHO. Description: The sensitizing capacity for colchicine treatment of multi drug resistance (MDR) CHO cell at concentration 1.0(mg/L). The assay is classed as functional, Cricetulus griseus.
Assay [5] has as its system CHO. Description: The sensitizing capacity for colchicine treatment of multi drug resistance(MDR) in CHO cell at concentration 0.1(mg/L). The assay is classed as functional, Cricetulus griseus.
Assay [6] deals with KB. Description: The sensitizing capacity of compound for colchicine treatment of multi drug resistance in KB cell was measured at concentration 1.0(mg/L). The assay is classed as functional, Homo sapiens.
The test system of assay [7] is KB. Description: The sensitizing capacity of compound for colchicine treatment of multi drug resistance in KB cell was measured at concentration 3.0(mg/L).
In assay [8] the test system is CHO. Put plainly: The sensitizing capacity of compound for colchicine treatment of parental (PAR)CHO cells was measured at concentration 0.1 (mg/L). The assay is classed as functional, Cricetulus griseus.
The test system of a further assay is KB (human). Put plainly: The sensitizing capacity of compound for colchicine treatment of multi drug resistance in KB cell was measured at concentration 1.0(mg/L).

Non-standard residues stand in square brackets, D forms with d. Residues, ends and D or L forms follow the SMILES beside them. *: point of attachment. NMeI = CC[C@H](C)[C@H](NC)C(=O)O; NMeD = CN[C@@H](CC(=O)O)C(=O)O; NMeV = CN[C@H](C(=O)O)C(C)C; Pip = O=C(O)[C@@H]1CCCCN1; dLac = C[C@@H](O)C(=O)O; Lac = C[C@H](O)C(=O)O; OtBu = CC(C)(C)O*

Take `CC[C@H](C)[C@H]1C(=O)NCC(=O)N(C)[C@@H](C(C)C)C(=O)N[C@@H](Cc2ccc(OC)cc2)C(=O)O[C@@H](C)C(=O)N2CCCC[C@H]2C(=O)N(C)[C@@H](C(C)C)C(=O)N[C@@H](C(C)C)C(=O)N(C)[C@@H](CC(=O)OCCC(C)(C)C)C(=O)N(C)[C@@H]([C@@H](C)CC)C(=O)N1C`: the Activity came to 7.9 in the assay with CHO [1]; 6.7 in the assay with CHO [2]; 25 with KB [3]; 292 in the assay on CHO [4]; 17 in the assay on CHO [5]; 1.7 with KB [6].

In the case of `CC[C@H](C)[C@H]1C(=O)NCC(=O)N(C)[C@@H](C(C)C)C(=O)N[C@@H](Cc2ccc(OC)cc2)C(=O)O[C@H](C)C(=O)N2CCCC[C@H]2C(=O)N(C)[C@@H](C(C)C)C(=O)N[C@@H](C(C)C)C(=O)N(C)[C@@H](CC(=O)NCCC(C)C)C(=O)N(C)[C@@H]([C@@H](C)CC)C(=O)N1C`, the Activity is given as 8.1 with CHO [1]; 5.8 in the assay on CHO [2]; 1.1 in the assay on KB [3]; 126 with CHO [4]; 3.7 in the assay with CHO [5]; 1 in the assay on KB [6].

On to `CC[C@H](C)[C@H]1C(=O)NCC(=O)N(C)[C@@H](C(C)C)C(=O)N[C@@H](Cc2ccc(OC)cc2)C(=O)O[C@@H](C)C(=O)N2CCCC[C@H]2C(=O)N(C)[C@@H](C(C)C)C(=O)N[C@@H](C(C)C)C(=O)N(C)[C@@H](CC(=O)OC(C)(C)C)C(=O)N(C)[C@@H]([C@@H](C)CC)C(=O)N1C` (cyclo(G[NMeV]Y(Me)[Lac][Pip][NMeV]V[NMeD](OtBu)[NMeI][NMeI])), for which the Activity in the assay with CHO [1] is given as 7; in the assay on CHO [2], 5.4; in the assay with KB [3], 196; with CHO [4] it was 333; in the assay on CHO [5], 66; with KB [6] it was 3.6.

`CC[C@H](C)[C@H]1C(=O)NCC(=O)N(C)[C@@H](C(C)C)C(=O)N[C@@H](Cc2ccc(OC)cc2)C(=O)O[C@H](C)C(=O)N2CCCC[C@H]2C(=O)N(C)[C@@H](C(C)C)C(=O)N[C@@H](C(C)C)C(=O)N(C)[C@@H](CC(=O)OC(C)(C)C)C(=O)N(C)[C@@H]([C@@H](C)CC)C(=O)N1C` (cyclo(G[NMeV]Y(Me)[dLac][Pip][NMeV]V[NMeD](OtBu)[NMeI][NMeI])): the Activity in the assay with CHO [1] is reported as 8.6; in the assay on CHO [2] it was 4.6; with CHO [4], 135; in the assay with CHO [5] it was 3.8; with KB [6], 1.1. For the same molecule, the Chemosensitizing activity in the assay with KB [7] was 1.8.

Turning to `CC[C@@H](C)[C@H]1C(=O)NCC(=O)N(C)[C@@H](C(C)C)C(=O)N[C@@H](Cc2ccc(OC)cc2)C(=O)O[C@@H](C)C(=O)N2CCCC[C@H]2C(=O)N(C)[C@@H](C(C)C)C(=O)N[C@@H](C(C)C)C(=O)N(C)[C@H](CC(=O)NC(C)(C)C)C(=O)N(C)[C@@H]([C@@H](C)CC)C(=O)N1C`, the Activity in the assay with CHO [1] is reported as 12; in the assay on CHO [2], 8.4; with KB [3] it was 113; in the assay with CHO [4], 343; in the assay with CHO [5] it was 70; with KB [6] it was 1.5.

In the case of `CC[C@@H](C)[C@H]1C(=O)NCC(=O)N(C)[C@@H](C(C)C)C(=O)N[C@@H](Cc2ccc(OC)cc2)C(=O)O[C@@H](C)C(=O)N2CCCC[C@H]2C(=O)N(C)[C@@H](C(C)C)C(=O)N[C@@H](C(C)C)C(=O)N(C)[C@H](CC(=O)NCC(C)(C)C)C(=O)N(C)[C@@H]([C@@H](C)CC)C(=O)N1C`, the Activity in the assay on CHO [1] came to 13; in the assay on CHO [2], 8; with KB [3] it was 82; in the assay on CHO [4], 358; in the assay on CHO [5] it was 95; in the assay on KB [6], 2.2.

For the molecule `CC[C@@H](C)[C@H]1C(=O)NCC(=O)N(C)[C@@H](C(C)C)C(=O)N[C@@H](Cc2ccc(OC)cc2)C(=O)O[C@H](C)C(=O)N2CCCC[C@H]2C(=O)N(C)[C@@H](C(C)C)C(=O)N[C@@H](C(C)C)C(=O)N(C)[C@H](CC(=O)NCC(C)(C)C)C(=O)N(C)[C@@H]([C@@H](C)CC)C(=O)N1C`, the Activity was found to be 12 with CHO [1]; 7.4 in the assay on CHO [2]; 2.3 in the assay with KB [3]; 155 in the assay on CHO [4]; 11 in the assay with CHO [5]; 1.1 in the assay with KB [6].

In the case of `CC[C@@H](C)[C@H]1C(=O)NCC(=O)N(C)[C@@H](C(C)C)C(=O)N[C@@H](Cc2ccc(OC)cc2)C(=O)O[C@H](C)C(=O)N2CCCC[C@H]2C(=O)N(C)[C@@H](C(C)C)C(=O)N[C@@H](C(C)C)C(=O)N(C)[C@H](CC(=O)N[C@H](C(=O)OC(C)(C)C)C(C)C)C(=O)N(C)[C@@H]([C@@H](C)CC)C(=O)N1C`, the Activity with CHO [1] stood at 8.5; in the assay with CHO [2] it was 6; in the assay on KB [3], 124; with CHO [4], 187; in the assay with CHO [5], 15; in the assay on KB [6] it was 1.2.

As to `CC[C@H](C)[C@H]1C(=O)NCC(=O)N(C)[C@@H](C(C)C)C(=O)N[C@@H](Cc2ccc(OC)cc2)C(=O)O[C@@H](C)C(=O)N2CCCC[C@H]2C(=O)N(C)[C@@H](C(C)C)C(=O)N[C@@H](C(C)C)C(=O)N(C)[C@@H](CC(=O)OCC23CC4CC(CC(C4)C2)C3)C(=O)N(C)[C@@H]([C@@H](C)CC)C(=O)N1C`, the Activity came to 7.4 with CHO [1]; 6.9 in the assay with CHO [2]; 3 in the assay on KB [3]; 78 in the assay with CHO [4]; 1.4 with CHO [5]; 1.3 in the assay with KB [6].

Consider `CC[C@@H](C)[C@H]1C(=O)NCC(=O)N(C)[C@@H](C(C)C)C(=O)N[C@@H](Cc2ccc(OC)cc2)C(=O)O[C@@H](C)C(=O)N2CCCC[C@H]2C(=O)N(C)[C@@H](C(C)C)C(=O)N[C@@H](C(C)C)C(=O)N(C)[C@H](CC(=O)NC23CC4CC(CC(C4)C2)C3)C(=O)N(C)[C@@H]([C@@H](C)CC)C(=O)N1C`, for which the Activity with CHO [1] amounted to 8; in the assay with CHO [2], 7.7; with KB [3], 772; with CHO [4], 290; in the assay on CHO [5] it was 92; in the assay with KB [6], 3.7.

For the molecule `CC[C@@H](C)[C@H]1C(=O)NCC(=O)N(C)[C@@H](C(C)C)C(=O)N[C@@H](Cc2ccc(OC)cc2)C(=O)O[C@@H](C)C(=O)N2CCCC[C@H]2C(=O)N(C)[C@@H](C(C)C)C(=O)N[C@@H](C(C)C)C(=O)N(C)[C@H](CC(=O)NCCC(C)C)C(=O)N(C)[C@@H]([C@@H](C)CC)C(=O)N1C`, the Activity in the assay with CHO [1] is recorded as 8.6; in the assay with CHO [2], 7.7; in the assay on KB [3], 54; in the assay with CHO [4] it was 273; in the assay with CHO [5], 83; in the assay with KB [6], 1.5.

Take `CC[C@H](C)[C@H]1C(=O)NCC(=O)N(C)[C@@H](C(C)C)C(=O)N[C@@H](Cc2ccc(OC)cc2)C(=O)O[C@@H](C)C(=O)N2CCCC[C@H]2C(=O)N(C)[C@@H](C(C)C)C(=O)N[C@@H](C(C)C)C(=O)N(C)[C@@H](CC(=O)NC[Si](C)(C)C)C(=O)N(C)[C@@H]([C@@H](C)CC)C(=O)N1C`: the Activity was 11 in the assay with CHO [1]; 7.4 in the assay on CHO [2]; 123 in the assay with KB [3]; 336 in the assay on CHO [4]; 81 with CHO [5]; 1.3 with KB [6].

Turning to `CC[C@@H](C)[C@H]1C(=O)NCC(=O)N(C)[C@@H](C(C)C)C(=O)N[C@@H](Cc2ccc(OC)cc2)C(=O)O[C@H](C)C(=O)N2CCCC[C@H]2C(=O)N(C)[C@@H](C(C)C)C(=O)N[C@@H](C(C)C)C(=O)N(C)[C@H](CC(=O)O)C(=O)N(C)[C@@H]([C@@H](C)CC)C(=O)N1C`, the Activity in the assay with CHO [1] is listed as 7.6; in the assay on CHO [8], 2.2; in the assay on CHO [4], 1.8; in the assay on CHO [5], 1.1.

Turning to `CC[C@@H](C)[C@H]1C(=O)NCC(=O)N(C)[C@@H](C(C)C)C(=O)N[C@@H](Cc2ccc(OC)cc2)C(=O)O[C@H](C)C(=O)N2CCCC[C@H]2C(=O)N(C)[C@@H](C(C)C)C(=O)N[C@@H](C(C)C)C(=O)N(C)[C@H](CC(=O)NC23CC4CC(CC(C4)C2)C3)C(=O)N(C)[C@@H]([C@@H](C)CC)C(=O)N1C`, the Activity in the assay on CHO [1] was found to be 8.9; in the assay with CHO [2] it was 7.3; in the assay on KB (human), 1.1; in the assay with KB [3], 3.7; in the assay with CHO [4], 177; in the assay with CHO [5], 25.

(Values after ChEMBL document CHEMBL1127553, “Derivatives of a novel cyclopeptolide. 2. Synthesis, activity against multidrug resistance in CHO and KB cells in vitro, and structure-activity relationships” (1994).)
